Test results taken from patent US12559475B2, “Tetrazine compound capable of having rapid cycloaddition reaction with non-strained olefinic boronic acid and biomedical application thereof” (NANJING UNIVERSITY, priority 2024, dated 2026).

Experiments:
HepG2 cells = assay: Toxicity (MTT cell survival) in HepG2 cells; type: cell-based; details: for IC50: Homo sapiens, HepG2, 48 h incubation, 1% FBS DMEM, MTT
Protocol: Toxicity of the tetrazine Tz-2, the doxorubicin prodrug DOX-VBA, the addition product, and the doxorubicin DOX were first tested.
HepG2 cells were plated in a 96-well plate and attached overnight; 1% FBS DMEM was used as a culture medium on the next day, different concentrations of Tz-2, DOX-VBA, product, and DOX were then added to the culture medium, and incubation was performed at 37° C. for 48 h; and 50 μL 1×MTT was added, the reaction continued for 4 h, DMSO was added to remove the culture medium, and cell survival rates at different concentrations were tested to calculate IC50 values (the cell survival rates were shown in FIG. 6).

[1] = Stability testing of tetrazine compounds in 10% FBS/DMEM (HPLC residual amount); type: physicochemical; details: 100 µM, 2.5% DMSO
Protocol: Specific implementation method: The tetrazine compounds were respectively dissolved in a 10% FBS/DMEM solution at a concentration of 100 µM (the solution contained 2.5% DMSO as a solubilizing agent), and residual amounts of tetrazine compounds were monitored via HPLC after 6 hours and 24 hours to analyze the stability of tetrazine compounds in a biological environment.

[2] = Reaction rate testing of tetrazine compounds and styryl boronic acid (HPLC); details: tetrazine 1 mM, styryl boronic acid 0.2 mM, methanol
Protocol: Specific implementation method: HPLC was used to test reaction rates by monitoring residual amounts of tetrazine compounds after different tetrazine compounds reacted with styryl boronic acid, where a molar concentration of the tetrazine compounds was 1 mM, and a molar concentration of styryl boronic acid was 0.2 mM, and a solvent was methanol solution.

[3] = Molecular release testing of tetrazine compound and styryl boronic acid derivative VBA-2 (NMR); details: Tz-2 + VBA-2, 0.02 M, deuterated DMSO:deuterated H2O=9:1, NMR
Protocol: Specific implementation method: the tetrazine compound Tz-2 and the styryl boronic acid derivative VBA-2 were dissolved in a deuterated solution (deuterated DMSO:deuterated H2O=9:1) at a molar concentration of 0.02 M. Reactions after 5 min, 12 h and 24 h were tested using a 500 MHz a nuclear magnetic resonance analyzer, and characteristic signal peaks of reactants and products on a hydrogen spectrum were tested to assess molecular release.

SMILES | residual amount of tetrazine compound ([1]; 6 h) [%] | residual amount of tetrazine compound ([1]; 24 h) [%] | IC50 (HepG2 cells) [nM] | k2 [2] [M⁻¹ s⁻¹] | time in which half of the benzylamine molecules were released [3] [h] | toxicity (in words) (HepG2 cells; HepG2 cells)
COc1cccc2c1C(=O)c1c(O)c3c(c(O)c1C2=O)C[C@@](O)(C(=O)CO)C[C@@H]3O[C@H]1C[C@H](N)[C@H](O)[C@H](C)O1 [DOX, doxorubicin, reference compound] |  |  | 500 |  |  | 
COc1ccnc(-c2nnc(-c3ccc(CNC(=O)OC(C)(C)C)cc3)nn2)c1C [Tz-11] | 99 | 92 |  | 23 |  | 
c1ccc(-c2nnc(-c3ccccn3)nn2)nc1 [Tz-Py, reference compound] | 35 | 1 |  | 1.4 |  | 

Second part, led by results:

residual amount of tetrazine compound ([1]; 6 h) [%] | residual amount of tetrazine compound ([1]; 24 h) [%] | SMILES | IC50 (HepG2 cells) [nM] | k2 [2] [M⁻¹ s⁻¹] | time in which half of the benzylamine molecules were released [3] [h] | toxicity (in words) (HepG2 cells; HepG2 cells)
99 | 85 | COc1ccnc(-c2nnc(-c3ccccc3)nn2)c1C [Tz-1] |  | 56 |  | 
55 | 17 | COc1ccnc(-c2nnc(-c3ccccn3)nn2)c1C [Tz-2] | > 100000 | 168 | 12 | non-toxic
99 | 92 | COc1ccnc(-c2nnc(-c3ccc(NC(=O)OC(C)(C)C)cc3)nn2)c1C [Tz-10] |  | 45 |  | 
99 | 90 | COc1c(C)cnc(-c2nnc(-c3ccccc3)nn2)c1C [Tz-16] |  | 28 |  | 
